Data set [1] concerns cerebral infarction model of PLA2g2e knockout mice. The experiment in a line: Cerebral infarct volume (anti-MAP2 staining) in PLA2g2e knockout mouse cerebral infarction model, oral lipid. It is filed as in vivo. To be noted: 1 mg orally 24, 48 and 72 hours after ischemia-reperfusion, 4 days after ischemia-reperfusion, FIG. 10. How it is done:
(§1) To identify lipids associated with pathological conditions of cerebral infarction, a comprehensive analysis was performed on lipids extracted from the cerebral tissue of a mouse model of cerebral infarction. The mouse model of cerebral infarction was prepared according to the following procedure. An embolization suture with a silicone-coated tip (Ethilon (suture gauge number 7-0), Johnson & Johnson) was inserted through the common carotid artery of 8 to 24-week-old C57BL/6N mice. Cerebral temperature was maintained at 36° C., cerebral blood flow was monitored by Doppler blood flowmeter ALF21 (ADVANCE CO., LTD.), and the embolization suture was placed at the origin of the middle cerebral artery so that the cerebral blood flow in the perfused area of the middle cerebral artery was maintained at 20 to 40% of the steady state. By removing the embolization suture after 60 minutes of ischemia, the cerebral tissue was reperfused. As a control, sham-operated mice were prepared. […]
(§2) Sections were prepared from the cerebral tissue 4 days after ischemia-reperfusion and immunohistochemistry was performed using anti-MAP2 antibody by the same procedure as in 2 above. The cerebral infarct volume was calculated based on the region that was not stained by the anti-MAP2 antibody, which is regarded as the cerebral infarct area.

Data set [2] concerns cerebral infarction models of wild-type mice. The experiment in a line: Neurological symptoms (Bederson score) in wild-type mouse cerebral infarction model, 15-HETrE intraperitoneal. It is filed as in vivo. The conditions noted are these: 600 μg per mouse intraperitoneally 24 hours after ischemia-reperfusion, vs vehicle, FIG. 8. The method, then:
(§3) To identify lipids associated with pathological conditions of cerebral infarction, a comprehensive analysis was performed on lipids extracted from the cerebral tissue of a mouse model of cerebral infarction. The mouse model of cerebral infarction was prepared according to the following procedure. An embolization suture with a silicone-coated tip (Ethilon (suture gauge number 7-0), Johnson & Johnson) was inserted through the common carotid artery of 8 to 24-week-old C57BL/6N mice. Cerebral temperature was maintained at 36° C., cerebral blood flow was monitored by Doppler blood flowmeter ALF21 (ADVANCE CO., LTD.), and the embolization suture was placed at the origin of the middle cerebral artery so that the cerebral blood flow in the perfused area of the middle cerebral artery was maintained at 20 to 40% of the steady state. By removing the embolization suture after 60 minutes of ischemia, the cerebral tissue was reperfused. As a control, sham-operated mice were prepared.
(§4) Then, cerebral infarction models of PLA2g2e knockout mice (Sato H., et al., 2014, Cell Metab, 20: 119-132) and wild-type mice were prepared by the same procedure as in 1 above (n=12, respectively), and neurological symptoms after ischemia-reperfusion were assessed over time in accordance with the neurological symptoms assessment score reported by Bederson, et al. (Bederson J B, et al., 1986, Stroke, 17: 472-476). […]

Data set [3] shares this test system. The data set can be described thus: Long-term neurological symptoms by corner test and cylinder test, 15-HETrE intravenous. To be noted: 600 ng intravenously 24, 48, 72 hours, up to 28 days, FIG. 16, 17. Format: in vivo, mouse. The method, then:
as §3
(§5) Cerebral infarction models of wild-type mice were prepared (n=10) by the same procedure as in 1 above. […] The cerebral infarct volume 28 days after ischemia-reperfusion was calculated by the procedure in 6 above.
In addition, long-term neurological symptoms were evaluated over time up to 28 days after ischemia-reperfusion by a corner test and a cylinder test (Nat. Med., 2017 June; 23(6):723-732). […]

For data set [4] the test system is unchanged. The experiment in a line: Cerebral infarct volume 28 days after ischemia-reperfusion in wild-type mouse model, 15-HETrE intravenous. To be noted: 600 ng intravenously 24, 48, 72 hours, p<0.05 vs vehicle, FIG. 15. Format: in vivo. The method, then:
as §1, with “state.” for “state. By removing the embolization suture after 60 minutes of ischemia, the cerebral tissue was reperfused. As a control, sham-operated mice were prepared.”
as §2, §5

The test system of data set [5] is neurons around the infarct area. The data set can be described thus: RNA-seq and GO analysis of neurons around the infarct area, 15-HETrE intravenous. It is filed as in vivo, mouse. To be noted: wild-type mice; 600 ng intravenously 24, 48, 72 hours; day 4; RNA-seq vs vehicle; FIG. 18. The method, then: Cerebral infarction models of neuron-specific Padi4cKO mice and wild-type mice were prepared by the same procedure as in 1 above. At 4 days after ischemia-reperfusion, the brain was isolated after transcardial perfusion with artificial cerebrospinal fluid. The brain was sliced into 300 lam thick sections and homogenized after treated with pronase. Neurons around the infarct area were isolated using anti-Thy1.2 Antibody (BioLegend) by a cell sorter (BD FACSAria III). Single-cell RNA-seq analysis was performed using Chromium Next GEM Single Cell 3′ Kit (10× Genomics) and DNB-seq (MGI Tech), and the results of cell population clustering were visualized as a UMAP plot using Loupe Browser (10× Genomics). A gene ontology (GO) analysis was also performed for each cluster using g:profiler (https:/biit.cs.ut.ee/gprofiler/gost).
Cerebral infarction models of wild-type mice was prepared by the same procedure as in 1 above. At 24, 48, and 72 hours after ischemia-reperfusion, 15-HETrE (600 ng)/phosphate buffer was administered intravenously through the orbital venous plexus. Neurons around the infarct area were isolated from mice on day 4 after ischemia-reperfusion by the procedure in 7 above, and RNA-seq analysis was performed. The analysis results were visualized as a volcano plot using Loupe Browser, and GO analysis was performed using g:profiler. […]

Data set [6] has as its system cerebral infarction model of PLA2g2e knockout mice. The data set can be described thus: Neurological symptoms over time in PLA2g2e knockout mouse cerebral infarction model, oral lipid. The conditions noted are these: 1 mg orally 24, 48, 72 hours, vs vehicle or stearic acid, p<0.001, FIG. 11. Format: in vivo. How it is done:
as §1, with “state.” for “state. By removing the embolization suture after 60 minutes of ischemia, the cerebral tissue was reperfused. As a control, sham-operated mice were prepared.”
as §4
In addition, neurological symptoms after ischemia-reperfusion were evaluated over time according to the same procedure as in 2 above.

For the next data set, the system named is PADI4-positive neurons. The experiment in a line: Number of PADI4-positive neurons in the peri-infarct area (immunohistochemistry). It is filed as in vivo, mouse. The conditions noted are these: PLA2g2e knockout mice; 1 mg orally 24, 48, 72 hours; 4 days after ischemia-reperfusion; cells per visual field; FIG. 12. The method, then:
Then, mice were perfused and fixed transcardially using a 4% paraformaldehyde solution 7 days after ischemia-reperfusion, and the brains were isolated. From the isolated cerebral tissue, sections of 1 mm thickness were prepared, embedded in paraffin, thinly sliced to 5 μm, and immunohistochemistry was performed according to an ordinary method. Anti-MAP2 antibody (Sigma-Aldrich, Cat. #M4403) (1:1000 dilution) was used as a primary antibody, and anti-mouse IgG antibody derived from goat (Jackson Immuno Research Laboratories, Inc., Cat. #115-005-003) (1:300 dilution) was used as a secondary antibody. In the figure, the scale bar indicates 1 mm, and the round linear object is an air bubble that was mixed in during the preparation of the specimen. The ischemic necrotic region (unstained region) in the cerebral infarction model of PLA2g2e knockout mice has expanded compared to the cerebral infarction model of wild-type mice. […]
Also, sections were prepared from the cerebral tissue 4 days after ischemia-reperfusion and PADI4-positive neurons were detected by immunohistochemistry by the same procedure as in 2 above, and the number of cells per visual field (approximately 0.1 square millimeter) in the pen-infarct area was counted. […]

The conditions of data set [7]: in vivo, po; cited from earlier work.
The subject of data set [8] is promoter region of the mouse Padi4 gene. The data set can be described thus: Padi4 promoter luciferase reporter assay in Neuro2A cells. The conditions noted are these: lipids 10 μM, 24 hours, relative to untreated cells = 1, FIG. 9. It is filed as cell-based. The method, then:
To identify the lipids inducing PADI4 expression, a luciferase reporter vector was prepared by incorporating the promoter region (SEQ ID NO: 5) of the mouse Padi4 gene (NCBI database accession number: NM_011061) into pGL3-Basic (Promega). The reporter vector was transfected into Neuro2A cells using PEI Max (Polysciences), and reporter cells were obtained. After reporter cells were cultured in media supplemented with lipids (10 μM final concentration) for 24 hours, the luciferase activity was measured with Luciferase Assay System (Promega). […]
(In general: A reporter such as luciferase makes a cellular process visible.)

With `CCCCCCCCCCCCCCCCCC(=O)O` [stearic acid, reference compound], in data set [1], the cerebral infarct volume result is “did not change the cerebral infarct volume”.

In the case of `CCCCC[C@H](O)/C=C/C=C\C/C=C\CCCCCCC(=O)O` [15-HETrE, 15-hydroxyeicosatrienoic acid], in data set [2], the “neurological symptoms (Bederson neurological symptoms assessment score)” value is “improved”. Further, the “long-term neurological symptoms (corner test and cylinder test)” value in data set [3] is “improved neurological symptoms up to 28 days”. In addition, the cerebral infarct volume entry in data set [4] is on record as “decreased the cerebral infarct volume”. The “expression of genes associated with neural tissue formation, neurite formation and synapse formation” value in [5] is “highly expressed”.

Consider `CCCCC/C=C\C/C=C\C/C=C\CCCCCCC(=O)O` [DGLA, dihomo-γ-linolenic acid], for which the “neurological symptoms after ischemia-reperfusion” value in [6] is “improvement in neurological symptoms”. The cerebral infarct volume result in data set [1] is listed as “decreased the cerebral infarct volume”. Further, the “number of PADI4-positive neurons around the cerebral infarct area” value with PADI4-positive neurons was “increased”. Further, in data set [7], the “migration into and accumulation in cerebral tissue” value was “migrate well into the cerebral tissue and are accumulated in the cerebral tissue even by oral intake”. In [8], the “Padi4 promoter inducing activity (luciferase activity)” value is listed as “induce Padi4 promoter activity”.

Source of the values: patent publication US20240139139A1, “COMPOSITION FOR PREVENTING OR TREATING CEREBROVASCULAR DISEASE” (TOKYO METROPOLITAN INSTITUTE OF MEDICAL SCIENCE, priority 2021, published 2024).
